From US7998965B2, “Glutamate aggrecanase inhibitors” (Wyeth LLC, priority 2005, dated 2011)
Where two headings read alike, the source gives them in different places.

Molecular target: T1, purified recombinant human Aggrecanase-1 (rAgg1) (Homo sapiens, UniProt O75173)
T1 sequence (O75173 213-837): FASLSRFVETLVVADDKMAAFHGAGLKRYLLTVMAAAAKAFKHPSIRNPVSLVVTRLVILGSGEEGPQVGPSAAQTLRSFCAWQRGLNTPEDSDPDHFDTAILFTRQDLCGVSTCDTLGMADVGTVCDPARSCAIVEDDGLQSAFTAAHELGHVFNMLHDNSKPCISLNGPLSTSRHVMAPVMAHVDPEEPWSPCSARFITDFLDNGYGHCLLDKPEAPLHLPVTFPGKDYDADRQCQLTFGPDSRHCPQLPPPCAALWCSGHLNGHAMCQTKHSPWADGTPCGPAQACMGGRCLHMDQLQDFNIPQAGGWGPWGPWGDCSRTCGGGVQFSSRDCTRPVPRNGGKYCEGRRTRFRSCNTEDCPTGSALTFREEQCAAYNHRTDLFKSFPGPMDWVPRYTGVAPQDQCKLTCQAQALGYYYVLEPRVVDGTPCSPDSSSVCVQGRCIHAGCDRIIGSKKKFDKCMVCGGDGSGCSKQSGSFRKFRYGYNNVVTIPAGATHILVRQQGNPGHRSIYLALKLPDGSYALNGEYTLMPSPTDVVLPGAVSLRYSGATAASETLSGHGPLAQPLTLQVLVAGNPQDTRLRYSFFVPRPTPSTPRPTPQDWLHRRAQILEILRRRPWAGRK
Assay: In vitro fluorescence screen for Aggrecanase-1 inhibitors
Format: biochemical
Conditions: for IC50: read-out: Agg1 IC50; for Ki: enzyme not given, column follows Agg1 IC50, read-out: Ki

IC50 (Table 1) | Structure (SMILES) | other results
0.3 µM | CC(C)(CO)NC(=O)[C@H](CCC(=O)O)NC(=O)c1ccc(-c2ccccc2)cc1 [Example 6B, N^2-(biphenyl-4-ylcarbonyl)-N^1-(2-hydroxy-1,1-dimethylethyl)-L-α-glutamine] | –
0.15 µM | CC(C)(C)CC(C)(C)NC(=O)[C@H](CCC(=O)O)NC(=O)c1ccc(-c2ccccc2)cc1 [Example 6C, N^2-(biphenyl-4-ylcarbonyl)-N^1-(1,1,3,3-tetramethylbutyl)-L-α-glutamine] | –
0.045 µM | CC(C)(Cc1ccccc1)NC(=O)[C@H](CCC(=O)O)NC(=O)c1ccc2c(c1)Cc1ccccc1-2 [Example 6D, N^1-(1,1-dimethyl-2-phenylethyl)-N^2-(9H-fluoren-2-ylcarbonyl)-L-α-glutamine] | –
0.056 µM | CC(C)(Cc1ccc(Cl)cc1)NC(=O)[C@H](CCC(=O)O)NC(=O)c1ccc2c(c1)Cc1ccccc1-2 [Example 6E, N^1-[2-(4-chlorophenyl)-1,1-dimethylethyl]-N^2-(9H-fluoren-2-ylcarbonyl)-L-α-glutamine] | –
0.37 µM | O=C(O)CC[C@H](NC(=O)c1ccc(-c2ccccc2)cc1)C(=O)NCc1cc(F)cc(F)c1 [Example 8AA, N^2-(1,1′-biphenyl-4-ylcarbonyl)-N^1-(3,5-difluorobenzyl)-L-α-glutamine] | –
0.2 µM | Cc1ccccc1CNC(=O)[C@H](CCC(=O)O)NC(=O)c1ccc(-c2ccccc2)cc1 [Example 8EE, N^2-(1,1′-biphenyl-4-ylcarbonyl)-N^1-(2-methylbenzyl)-L-α-glutamine] | –
0.16 µM | Cc1cccc(CNC(=O)[C@H](CCC(=O)O)NC(=O)c2ccc(-c3ccccc3)cc2)c1C [Example 8HH, N^2-(1,1′-biphenyl-4-ylcarbonyl)-N^1-(2,3-dimethylbenzyl)-L-α-glutamine] | –
0.5 µM | O=C(O)CC[C@H](NC(=O)c1ccc(-c2ccccc2)cc1)C(=O)NCC1C2CC3CC(C2)CC1C3 (stereo partly drawn) [Example 8I, N^1-(2-adamantylmethyl)-N^2-(1,1′-biphenyl-4-ylcarbonyl)-L-α-glutamine] | –
0.36 µM | COCCNC(=O)[C@H](CCC(=O)O)NC(=O)c1ccc(-c2ccccc2)cc1 [Example 8J, N^2-(1,1′-biphenyl-4-ylcarbonyl)-N^1-(2-methoxyethyl)-L-α-glutamine] | –
0.3 µM | COc1ccc(CNC(=O)[C@H](CCC(=O)O)NC(=O)c2ccc(-c3ccccc3)cc2)cc1 [Example 8K, N^2-(1,1′-biphenyl-4-ylcarbonyl)-N^1-(4-methoxybenzyl)-L-α-glutamine] | –
0.18 µM | CC(C)(C)c1ccc(CNC(=O)[C@H](CCC(=O)O)NC(=O)c2ccc(-c3ccccc3)cc2)cc1 [Example 8KK, N^2-(1,1′-biphenyl-4-ylcarbonyl)-N^1-(4-tert-butylbenzyl)-L-α-glutamine] | –
0.29 µM | O=C(O)CC[C@H](NC(=O)c1ccc(-c2ccccc2)cc1)C(=O)NCc1cccc2ccccc12 [Example 8N, N^2-(1,1′-biphenyl-4-ylcarbonyl)-N^1-(1-naphthylmethyl)-L-α-glutamine] | –

Further lines, the molecule ahead of its results:

Structure (SMILES) | IC50 (Table 1) | other results
O=C(O)CCC(NC(=O)c1ccc(-c2ccccc2)cc1)C(=O)O (stereo in doubt) [Example 2, N-(1,1′-biphenyl-4-ylcarbonyl)-D-glutamic acid] | 0.111 µM | –
O=C(O)CC[C@H](NC(=O)c1ccc(Nc2ncccn2)cc1)C(=O)O [Example 1, N-[4-(pyrimidin-2-ylamino)benzoyl]-L-glutamic acid] | 0.9 µM | –
NC(=O)[C@H](CCC(=O)O)NC(=O)c1ccc(Nc2ncccn2)cc1 [Example 3, N^2-[4-(pyrimidin-2-ylamino)benzoyl]-L-alpha-glutamine] | 12.7 µM | –
NC(=O)[C@@H](CCC(=O)O)NC(=O)c1ccc(-c2ccccc2)cc1 [Example 4, N^2-(1,1′-biphenyl-4-ylcarbonyl)-D-alpha-glutamine] | 1.1 µM | –
O=C(O)CC[C@H](NC(=O)c1ccc(-c2ccccc2)cc1)C(=O)NCCCCO [Example 5, N^2-(1,1′-biphenyl-4-ylcarbonyl)-N^1-(4-hydroxybutyl)-L-alpha-glutamine] | 1.8 µM | –
Nc1ccc(CNC(=O)[C@H](CCC(=O)O)NC(=O)c2ccc(-c3ccccc3)cc2)cc1 [Example 8AAAA, N^1-(4-aminobenzyl)-N^2-(1,1′-biphenyl-4-ylcarbonyl)-L-α-glutamine] | 0.1 µM | –
Cc1cccc(CNC(=O)[C@H](CCC(=O)O)NC(=O)c2ccc3c(c2)Cc2ccccc2-3)c1 [Example 8CCCCC, N^2-(9H-fluoren-2-ylcarbonyl)-N^1-(3-methylbenzyl)-L-α-glutamine] | – | IC50 (Table 2): 0.107 µM
O=C(O)CC[C@H](NC(=O)c1ccc(-c2ccccc2)cc1)C(=O)NCCN1CCOCC1 [Example 8DDD, N^2-(biphenyl-4-ylcarbonyl)-N^1-(2-morpholin-4-ylethyl)-L-α-glutamine] | 0.3 µM | –
Nc1cccc(CNC(=O)[C@H](CCC(=O)O)NC(=O)c2ccc(-c3ccccc3)cc2)c1 [Example 8DDDD, N^1-(3-aminobenzyl)-N^2-(1,1′-biphenyl-4-ylcarbonyl)-L-α-glutamine] | 0.11 µM | –
CCN(CC)C(=O)[C@H](CCC(=O)O)NC(=O)c1ccc(-c2ccccc2)cc1 [Example 8EEE, N^2-(biphenyl-4-ylcarbonyl)-N^1,N^1-diethyl-L-α-glutamine] | 7.9 µM | –
O=C(O)CC[C@H](NC(=O)c1ccc(-c2ccccc2)cc1)C(=O)NCc1ccccc1 [Example 8EEEE, N^1-benzyl-N^2-(1,1-biphenyl-4-ylcarbonyl)-L-α-glutamine] | 0.4 µM | –
CCCCN(C)C(=O)[C@H](CCC(=O)O)NC(=O)c1ccc(-c2ccccc2)cc1 [Example 8EEEEEE, N^2-(biphenyl-4-ylcarbonyl)-N-butyl-N-methyl-L-α-glutamine] | – | IC50 (Table 2): 5 µM
CC(C)(Cc1ccc(F)cc1)NC(=O)[C@@H](CCC(=O)O)NC(=O)c1ccc(-c2ccccc2)cc1 [Example 8FFFF, N^2-(biphenyl-4-ylcarbonyl)-N^1-[2-(4-fluorophenyl)-1,1-dimethylethyl]-D-α-glutamine] | 3.6 µM | –
COc1ccc(CCN(C)C(=O)[C@H](CCC(=O)O)NC(=O)c2ccc(-c3ccccc3)cc2)cc1OC [Example 8GGGGGG, N^2-(biphenyl-4-ylcarbonyl)-N-[2-(3,4-dimethoxyphenyl)ethyl]-N-methyl-L-α-glutamine] | – | IC50 (Table 2): 4.2 µM
O=C(O)CCC(NC(=O)c1ccc(Nc2ncccn2)cc1)C(=O)NCc1ccccc1 (stereo not drawn) [Example 8HHHH] | 0.2 µM | –
Cc1ccc(CNC(=O)[C@H](CCC(=O)O)NC(=O)c2ccc(-c3ccccc3)cc2)cc1 [Example 8III, N^2-(1,1′-biphenyl-4-ylcarbonyl)-N^1-(4-methylbenzyl)-L-α-glutamine] | 0.12 µM | –
O=C(O)CC[C@H](NC(=O)c1ccc2c(c1)Cc1ccccc1-2)C(=O)NCCCc1ccccc1 [Example 8IIII, N^2-(9H-fluoren-2-ylcarbonyl)-N^1-(3-phenylpropyl)-L-α-glutamine] | < 0.03 µM | Ki (Table 1): 0.009 µM
O=C(O)CC[C@H](NC(=O)c1cccc2c1Cc1ccccc1-2)C(=O)NCCCc1ccccc1 [Example 8JJJJ, N^2-(9H-fluoren-1-ylcarbonyl)-N^1-(3-phenylpropyl)-L-α-glutamine] | > 50 µM | –
COc1cc(CNC(=O)[C@H](CCC(=O)O)NC(=O)c2ccc3c(c2)Cc2ccccc2-3)cc(OC)c1OC [Example 8KKKK, N^2-(9H-fluoren-2-ylcarbonyl)-N^1-(3,4,5-trimethoxybenzyl)-L-α-glutamine] | < 0.03 µM | Ki (Table 1): 0.004 µM
CC(C)(C)CCNC(=O)[C@H](CCC(=O)O)NC(=O)c1ccc(-c2ccccc2)cc1 [Example 8LLL, N^2-(biphenyl-4-ylcarbonyl)-N^1-(3,3-dimethylbutyl)-L-α-glutamine] | 0.23 µM | –
COc1cc(CNC(=O)[C@H](CCC(=O)O)NC(=O)c2cccc3c2Cc2ccccc2-3)cc(OC)c1OC [Example 8LLLL, N^2-(9H-fluoren-1-ylcarbonyl)-N^1-(3,4,5-trimethoxybenzyl)-L-α-glutamine] | – | Agg1 IC50 (nM) (Table 1): no inh
COc1cc(CNC(=O)[C@H](CCC(=O)O)NC(=O)c2ccc3c(c2)C(=O)c2ccccc2-3)cc(OC)c1OC [Example 8MMMM, N^2-[(9-oxo-9H-fluoren-2-yl)carbonyl]-N^1-(3,4,5-trimethoxybenzyl)-L-α-glutamine] | 0.047 µM | Ki (Table 1): 0.057 µM
COc1cc(CNC(=O)[C@H](CCC(=O)O)NC(=O)c2ccc(Oc3ccccc3)cc2)cc(OC)c1OC [Example 8NNNN, N^2-(4-phenoxybenzoyl)-N^1-(3,4,5-trimethoxybenzyl)-L-α-glutamine] | 3.4 µM | –
O=C(O)CC[C@H](NC(=O)c1ccc(Br)cc1)C(=O)NCc1ccccc1 [Example 8NNNNNN, N^1-benzyl-N^2-(4-bromobenzoyl)-L-α-glutamine] | ~40 µM | –
CCCCCCNC(=O)[C@H](CCC(=O)O)NC(=O)c1ccc2c(c1)Cc1ccccc1-2 [Example 8OOOO, N^2-(9H-fluoren-2-ylcarbonyl)-N^1-hexyl-L-α-glutamine] | 0.052 µM | Ki (Table 1): 0.06 µM
CC(=O)NCCNC(=O)[C@H](CCC(=O)O)NC(=O)c1ccc(-c2ccccc2)cc1 [Example 8OOOOOO, N^1-[2-(acetylamino)ethyl]-N^2-(1,1′-biphenyl-4-ylcarbonyl)-L-α-glutamine] | 0.67 µM | –
